{"source": "patent US7019112B1", "about": "“Peptides recognized by melanoma-specific A1-, A2- and A3-restricted cytoxic lymphocytes, and uses therefor” (University of Virginia Patent Foundation, priority 1996, dated 2006)", "key": {"T2 cells": {"system": "T2 cells", "test": "Chromium release assay: reconstitution of epitopes on peptide-pulsed T2 cells for HLA-A2.1-restricted melanoma-specific CTL", "conditions": "for % specific release (of Cr-51), no CTL: T2 + peptide 1 μM; for reconstitution of recognition by CTL lines from 3 additional patients: 946 at 0.1–1 nM, other peptides at equal or higher concentrations, FIG. 12; for effect on epitope reconstitution: VMM5 and DM204-13 CTL, concentrations up to 10 nM; for number of CTL lines/patients recognizing the peptide: HLA-A2.1 restricted melanoma specific CTL lines", "method": "Cell-mediated killing was determined in vitro using a 4-h chromium release assay. 51Cr-labeled target cells were plated at 2×10^3 cells/well in triplicate on 96-well V-bottom plates (Costar, Cambridge, Mass.) with varying numbers of effector cells in a final volume of 250 microl. Wells containing either culture medium and target cells only or 1 M HCl and target cells served as background 51Cr release controls and total release controls, respectively. The plates were centrifuged at 100×g for 3 min and incubated at 37° C. in 5% CO2 for 4 h. The plates were again centrifuged, and 0.20 ml of medium from each well was removed for counting in a gamma counter. The cytotoxic index was calculated as: Cpm(experimental)−cpm(background)×100% Cpm(total release)−cpm(background) Lytic units were calculated for several of the cytotoxicity assays, using a software package prepared by the National. Cancer Institute (Bethesda, Md.), which solves for the equation y=A×[1−exp(−kx)], where x is the E:T ratio, y is the cytotoxic index, A is the curve maximum, and k is a constant used to calculate the slope of the best fit line. For the purposes of this study, a lytic unit was defined as the number of effector cells needed to mediate […] lysis of target cells. The number of lytic units was calculated per 10^5 effector cells (LU30 per 10^5 cells).\nEffector cells were added in 100 microl assay medium to give an E:T ratio of 10:1, and were incubated at 37° C. The remainder of the assay is performed as in standard chromium release assays described above. Wells containing peptide and target cells but no CTL were used as controls to rule out toxicity of the peptides themselves.\nHLA-A2.1 molecules were immunoaffinity purified from detergent lysates of the human melanoma cell line DM6. The associated peptides were released by acid extraction, separated from HLA-A2.1 and antibody by filtration, and fractionated by multiple stages of HPLC. […] L. Slingluff Jr., et al, J. Immunol. […] In FIG. 8B Fractions 2 and 3 from the separation shown in panel A were pooled and rechromatographed with a 55 minute gradient of 0 to 30% acetonitrile/0.1% heptafluorobutyric acid (HFBA) in 0.1% HFBA, collecting one-minute fractions. For both panels, peptide: fractions were incubated for 2–3h with 2×10^3 51Cr-labelled T2 cells in […] assay media per well in 96-well plates.\nCTL lines VMM5 and VMM6 were generated by stimulation with autologous tumor. VMM5 CTL were maintained on allogeneic. A2.1+melanoma DM6 after specificity was obtained, C. L. Slingluff Jr. et al., J. Immunol. […] DM169-13 and DM204-13 CTL were generated by stimulation with allogeneic A2.1+melanoma DM13, N. J. Crowley et al., J. Immunol. […] LD1 CTL were stimulated on a rotating schedule of stimulating allogeneic A2.1+melanomas DM6, DM13, and DM93. DM93 is an HLA-A2.1+melanoma used as a positive control. […] T2 cells were preincubated with the peptides whose (M+H)^+ values are indicated in the legend, FIG. 12. […] Asterisks (*) mark peptides not evaluated."}, "T2-A3 cells": {"system": "T2-A3 cells", "type": "cell-based, human"}, "VMM12 CTL": {"system": "VMM12 CTL", "test": "Recognition of Pmel-17 peptide by VMM12 CTL", "type": "cell-based, human", "description": "However, VMM12 CTL do recognize and lyse VMM18 melanoma cells. Because the only Class I MHC molecule shared by VMM12 and VMM18 is HLA-A3, it is evident that at least one additional shared CTL epitope is expressed by both of these tumors."}, "VMM12-EBV": {"system": "VMM12-EBV", "test": "Screen of Pmel-17/gp100 peptides for sensitizing VMM12-EBV cells for lysis by VMM18 CTL", "type": "cell-based, human", "conditions": "Table 102 (not given)"}, "C1R-A1 cells [1]": {"system": "C1R-A1 cells", "test": "Chromium release assay: peptide-pulsed C1R-A1 cells, VMM12 CTL", "type": "cell-based, human", "conditions": "C1R-A1 pulsed with 1 to 0.03 uM peptide; FIG. 23"}, "C1R-A1 cells [2]": {"system": "C1R-A1 cells", "test": "Chromium release assay: peptide-pulsed C1R-A1 cells, VMM15 CTL", "type": "cell-based, human", "conditions": "for reconstitution of an epitope for VMM15 CTL: C1R-A1 pulsed with 10 uM, 1 uM and 0.1 uM peptide, FIG. 22"}, "[3]": {"system": "tyrosinase specific CTL clone IVSB", "test": "Sensitization of target cells for lysis by tyrosinase specific CTL clone IVSB", "type": "cell-based, human", "description": "T. Wolfei, et. al., Eur. J. Immuno. 24, 759 (1994). […] Even when target cells were pretreated with the monoclonal antibody MA2.1 in order to facilitate exogenous peptide binding to HLA-A2.1. T. Wolfei, et al., Eur. J. Immunol."}, "[4]": {"conditions": "T2-A3, VMM18 CTL, FIG. 18, read-out: half maximal lysis"}, "[5]": {"conditions": "CTL clone IVSB, read-out: half maximal lysis"}}, "note": "“Also recorded” adds a separate entry of the source. Like-named read-outs stand apart in the source and are kept apart here. Where no end group is shown, it is not given here."}
{"molecule": "CC[C@H](C)[C@H](NC(=O)[C@@H](N)Cc1ccc(O)cc1)C(=O)N[C@@H](CCC(=O)O)C(=O)N1CCC[C@H]1C(=O)NCC(=O)N1CCC[C@H]1C(=O)N[C@H](C(=O)N[C@H](C(=O)N[C@@H](C)C(=O)O)[C@@H](C)O)C(C)C", "note": "[946I]", "values": [{"measurement": "% specific release (of Cr-51), no CTL", "setting": "T2 cells", "value": 0.1, "unit": "%"}]}
{"molecule": "CC(C)C[C@H](NC(=O)[C@@H](N)Cc1ccc(O)cc1)C(=O)N[C@@H](CCC(=O)O)C(=O)N1CCC[C@H]1C(=O)NCC(=O)N1CCC[C@H]1C(=O)N[C@H](C(=O)N[C@H](C(=O)N[C@@H](C)C(=O)O)[C@@H](C)O)C(C)C", "note": "[946L]", "values": [{"measurement": "% specific release (of Cr-51), no CTL", "setting": "T2 cells", "value": -1.4, "unit": "%"}]}
{"molecule": "ALLAVGATK [SEQ ID NO:98]", "values": [{"measurement": "EC50", "setting": "T2-A3 cells; [4]", "value": "1 to 10", "unit": "nM"}, {"measurement": "EC50", "setting": "T2-A3 cells; read-out: half-maximal lysis of T2 cells expressing HLA-A3", "value": "~10", "unit": "nM"}, {"measurement": "recognition by CTL from patient VMM12", "setting": "VMM12 CTL", "value": "not recognized"}, {"measurement": "sensitization of VMM12-EBV for lysis by VMM18 CTL", "setting": "VMM12-EBV", "value": "sensitized VMM12-EBV for lysis by VMM18 CTL"}]}
{"molecule": "Ala-Xaa-Tyr-Asp-Ala-Thr-Tyr-Glu-Thr, wherein Xaa=Leu or Ile [compound 1046]", "values": [{"measurement": "reconstitution of recognition by CTL lines from 3 additional patients", "setting": "T2 cells", "value": "neither 864 nor 1046 had any detectable activity"}, {"measurement": "effect on epitope reconstitution", "setting": "T2 cells", "value": "no effect"}]}
{"molecule": "DAEKCDICTDEY (cysteine pairing not given here) [SEQ ID NO:101]", "values": [{"measurement": "reconstitution of an epitope for VMM12 CTL", "setting": "C1R-A1 cells [1]", "value": "reconstituted an epitope for these VMM12 CTL, although weakly"}, {"measurement": "reconstitution of an epitope for VMM15 CTL", "setting": "C1R-A1 cells [2]", "value": "also recognized; also recorded: reconstituted"}]}
{"molecule": "EKCDICTDEY (cysteine pairing not given here) [SEQ ID NO:102]", "values": [{"measurement": "reconstitution of an epitope for VMM15 CTL", "setting": "C1R-A1 cells [2]", "value": "also recognized; also recorded: reconstituted"}]}
{"molecule": "KCDICTDEY [SEQ ID NO:93]", "values": [{"measurement": "half-maximal lysis", "setting": "C1R-A1 cells [2]", "value": "approximately 1 ug/ml"}, {"measurement": "reconstitution of an epitope for VMM15 CTL", "setting": "C1R-A1 cells [2]", "value": "most effective, even at the lowest concentration tested; also recorded: reconstituted"}, {"measurement": "reconstitution of an epitope for VMM15 CTL", "setting": "C1R-A1 cells [2]; listed as KCDICTDEY", "value": "reconstitutes an epitope for VMM15 CTL"}, {"measurement": "EC50", "setting": "C1R-A1 cells [2]; read-out: half-maximal lysis", "value": "~1000", "unit": "nM"}]}
{"molecule": "LLAVGATK [SEQ ID NO:4]", "values": [{"measurement": "EC50", "setting": "T2-A3 cells; [4]", "value": "> 1000", "unit": "nM"}, {"measurement": "sensitization of VMM12-EBV for lysis by VMM18 CTL", "setting": "VMM12-EBV", "value": "sensitized VMM12-EBV for lysis by VMM18 CTL"}]}
{"molecule": "SMAPGNTSV [compound 864]", "values": [{"measurement": "reconstitution of recognition by CTL lines from 3 additional patients", "setting": "T2 cells", "value": "neither 864 nor 1046 had any detectable activity"}, {"measurement": "effect on epitope reconstitution", "setting": "T2 cells", "value": "no effect"}]}
{"molecule": "Tyr Xaa Glu Pro Gly Pro Val Thr Ala (YXEPGPVTA; not fully specified; X: randomised place (mixture)) [compound 946]", "values": [{"measurement": "reconstitution of recognition by CTL lines from 3 additional patients", "setting": "T2 cells", "value": "reconstituted recognition by each of these 3 lines"}, {"measurement": "number of CTL lines/patients recognizing the peptide", "setting": "T2 cells", "value": "5 out of 5"}, {"measurement": "EC50", "setting": "T2 cells; read-out: half-maximal lysis, dose response curves, two of the 3 additional CTL lines", "value": "0.001 to 0.01", "unit": "nM"}, {"measurement": "EC50", "setting": "T2 cells; read-out: half-maximal lysis, other assays", "value": 0.001, "unit": "nM"}]}
{"molecule": "Tyr met Asn Gly Thr Met Ser Gln Val [SEQ ID NO:94]", "values": [{"measurement": "number of CTL lines/patients recognizing the peptide", "setting": "T2 cells", "value": "None of 4"}, {"measurement": "EC50", "setting": "[3]; [5]", "value": 10000, "unit": "nM"}, {"measurement": "EC50", "setting": "[3]; target cells pretreated with monoclonal antibody MA2.1, read-out: concentration required to give half-maximal target cell lysis", "value": "> 1000", "unit": "nM"}]}
{"molecule": "YMDGTMSQV [SEQ ID NO:9]", "values": [{"measurement": "EC50", "setting": "[3]; [5]", "value": 100, "unit": "nM"}]}
